Results: patent publication US10912780B2, “Heterocyclic compounds useful as anti-bacterial agents and method for production thereof” (Bugworks Research, Inc., priority 2017, dated 2021)
Values after ≈ are worked out from the molar mass of the structure shown. Values joined by “and” are separate entries in the source; they are usually repeats but may differ in a detail not shown here. Equal entries are not always repeated.

How the values were obtained:
[1] = tested on: Pseudomonas aeruginosa ATCC 27853; test: Minimum Inhibitory Concentration (MIC) in LB media; type: cell-based; conditions: Pseudomonas aeruginosa, ATCC27853, read-out: Minimum Inhibitory Concentration P. aeruginosa ATCC 27853
From the text: (§1) The compounds of Formula (I) are of interest due to their potent antibacterial effects. The ability of the invention compounds disclosed herein to achieve an antibacterial effect may be evaluated with regard to their ability to inhibit the growth of bacterial species like Escherichia coli ATCC 25922, Staphylococcus aureus ATCC 29213, Klebsiella pneumoniae ATCC 13883, Acinetobacter baumannii ATCC 19606, Pseudomonas aeruginosa ATCC 27853, Enterococcus faecalis ATCC 29212 and Enterococcus faecalis ATCC 29212 using an assay based on the following Minimum Inhibitory Concentration (MIC) protocol:
(§2) The medium sterility is checked by incubating at 37° C. for a period of 48 h.
(§3) Bacterial cultures that are stored as glycerol stocks at −80° C. are sub cultured on LB agar plates to obtain isolated colonies. A single colony of each strain is cultured in LB broth. The cultures are incubated at 37 C, 200 rpm till they reach an optical density (OD at 600 nm) of 0.8 to 1. […] Test compounds are dissolved in dimethyl sulfoxide (DMSO) to a stock concentration of 4 mg/ml. A twofold dilution series of this DMSO stock is prepared in a 96 well V bottom microtitre plate from rows A to H. A 3 μL volume of these dilutions are transferred to a 96-well flat bottom microtitre assay plate. Controls to monitor the effects of DMSO and media sterility are included. Each well is inoculated with 150 μL of the above diluted culture. The plates are incubated at 37° C. overnight in a humidified incubator. The following morning, the plates are read using a Spectrophotometer at 600 nm wavelength. […] The antibacterial activity (MIC) determined against representative Gram positive (S. aureus, E. faecalis) and Gram negative (E.coli, -P. aeruginosa and A. baumannii) pathogen were reported Table 1.

[2] = tested on: Enterococcus faecalis ATCC 29212; test: Minimum Inhibitory Concentration (MIC) in LB media; type: cell-based; conditions: Enterococcus faecalis, ATCC29212, read-out: Minimum Inhibitory Concentration E. faecalis ATCC 29212
From the text: as §1, §2, §3

[3] = tested on: Klebsiella pneumoniae ATCC 13883; test: Minimum Inhibitory Concentration (MIC) in LB media; type: cell-based; conditions: Klebsiella pneumoniae, ATCC13883, read-out: Minimum Inhibitory Concentration K. pneumoniae ATCC 13883
From the text: as §1, §2, §3

[4] = tested on: Escherichia coli ATCC 25922; test: Minimum Inhibitory Concentration (MIC) in LB media; type: cell-based; conditions: Escherichia coli, ATCC25922, read-out: Minimum Inhibitory Concentration E. coli ATCC 25922
From the text: as §1, §2, §3

[5] = tested on: Staphylococcus aureus ATCC 29213; test: Minimum Inhibitory Concentration (MIC) in LB media; type: cell-based; conditions: Staphylococcus aureus, ATCC29213, read-out: Minimum Inhibitory Concentration S. aureus ATCC 29213
From the text: as §1, §2, §3

[6] = tested on: K. pneumoniae [ATCC13883]; test: Neutropenic thigh infection model in rat; type: in vivo; conditions: 10 mg/kg, i.v. bolus, neutropenic rat
E. coli topoisomerase IV = E. coli topoisomerase IV (Escherichia coli, UniProt P0AFI2+P20083); test: biochemical; conditions: decatenation assay; read-out: E. coli Topo IV IC50
E. coli topoisomerase IV, sequence (P20083 whole entry): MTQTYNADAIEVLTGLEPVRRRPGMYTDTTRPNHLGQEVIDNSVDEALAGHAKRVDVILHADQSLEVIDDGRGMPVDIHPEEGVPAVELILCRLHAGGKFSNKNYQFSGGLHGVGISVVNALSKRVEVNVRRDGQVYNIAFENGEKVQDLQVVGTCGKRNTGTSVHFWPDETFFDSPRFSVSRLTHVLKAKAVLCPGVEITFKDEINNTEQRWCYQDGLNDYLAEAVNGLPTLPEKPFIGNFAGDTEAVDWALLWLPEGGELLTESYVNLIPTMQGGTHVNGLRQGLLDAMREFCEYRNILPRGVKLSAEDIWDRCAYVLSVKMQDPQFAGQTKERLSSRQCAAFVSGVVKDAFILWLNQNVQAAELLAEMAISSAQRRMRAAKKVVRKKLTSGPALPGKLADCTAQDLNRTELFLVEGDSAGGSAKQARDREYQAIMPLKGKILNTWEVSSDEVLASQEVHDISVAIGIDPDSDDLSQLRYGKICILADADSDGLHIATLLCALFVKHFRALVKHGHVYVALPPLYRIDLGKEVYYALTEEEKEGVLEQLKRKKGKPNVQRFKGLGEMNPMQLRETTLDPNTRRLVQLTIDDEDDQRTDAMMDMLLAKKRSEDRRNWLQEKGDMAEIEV
E. coli topoisomerase IV, sequence (P0AFI2 whole entry): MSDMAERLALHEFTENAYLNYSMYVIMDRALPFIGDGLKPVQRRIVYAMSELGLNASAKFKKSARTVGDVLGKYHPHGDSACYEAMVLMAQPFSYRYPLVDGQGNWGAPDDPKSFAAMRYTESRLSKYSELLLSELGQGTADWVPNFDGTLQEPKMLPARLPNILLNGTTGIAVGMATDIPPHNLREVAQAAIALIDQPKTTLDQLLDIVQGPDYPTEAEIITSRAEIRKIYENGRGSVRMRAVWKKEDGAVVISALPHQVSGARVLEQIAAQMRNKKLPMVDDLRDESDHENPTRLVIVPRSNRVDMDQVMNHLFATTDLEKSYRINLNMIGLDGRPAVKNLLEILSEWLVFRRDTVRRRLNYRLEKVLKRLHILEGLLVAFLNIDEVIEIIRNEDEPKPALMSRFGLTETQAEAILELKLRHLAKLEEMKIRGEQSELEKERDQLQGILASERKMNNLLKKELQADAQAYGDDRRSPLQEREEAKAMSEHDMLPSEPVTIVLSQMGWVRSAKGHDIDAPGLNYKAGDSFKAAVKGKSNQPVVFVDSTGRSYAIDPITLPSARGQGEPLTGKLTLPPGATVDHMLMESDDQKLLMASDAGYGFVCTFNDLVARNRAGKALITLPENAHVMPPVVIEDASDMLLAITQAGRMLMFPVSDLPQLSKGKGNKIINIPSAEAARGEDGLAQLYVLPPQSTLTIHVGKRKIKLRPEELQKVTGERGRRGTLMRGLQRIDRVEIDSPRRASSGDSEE

E. coli DNA gyrase = E. coli DNA gyrase (Escherichia coli, UniProt P0AES4+P0AES6); test: biochemical; conditions: supercoiling assay
E. coli DNA gyrase, sequence (P0AES4 whole entry, one chain of several): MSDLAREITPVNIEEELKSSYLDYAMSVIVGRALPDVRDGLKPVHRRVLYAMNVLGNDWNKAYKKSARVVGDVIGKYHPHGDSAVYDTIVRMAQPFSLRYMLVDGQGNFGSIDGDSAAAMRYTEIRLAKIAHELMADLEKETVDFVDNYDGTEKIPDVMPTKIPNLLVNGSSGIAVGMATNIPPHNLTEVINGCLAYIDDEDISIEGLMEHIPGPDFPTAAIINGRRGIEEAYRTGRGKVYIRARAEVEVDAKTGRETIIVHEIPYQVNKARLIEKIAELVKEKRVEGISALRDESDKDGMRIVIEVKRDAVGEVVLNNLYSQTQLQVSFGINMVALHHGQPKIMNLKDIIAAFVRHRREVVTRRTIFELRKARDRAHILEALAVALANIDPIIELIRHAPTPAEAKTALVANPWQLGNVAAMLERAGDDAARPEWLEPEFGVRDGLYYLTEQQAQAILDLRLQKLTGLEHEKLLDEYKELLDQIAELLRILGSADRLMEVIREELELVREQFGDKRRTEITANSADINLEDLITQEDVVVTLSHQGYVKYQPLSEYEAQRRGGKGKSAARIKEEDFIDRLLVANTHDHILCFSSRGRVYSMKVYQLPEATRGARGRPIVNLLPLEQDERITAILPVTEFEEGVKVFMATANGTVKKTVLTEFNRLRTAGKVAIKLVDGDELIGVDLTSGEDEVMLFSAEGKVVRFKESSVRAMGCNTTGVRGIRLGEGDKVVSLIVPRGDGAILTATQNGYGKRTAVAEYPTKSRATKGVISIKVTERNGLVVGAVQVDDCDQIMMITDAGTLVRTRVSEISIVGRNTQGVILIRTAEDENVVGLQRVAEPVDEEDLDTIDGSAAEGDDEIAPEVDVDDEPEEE

[7] = tested on: Acinetobacter baumannii ATCC 19606; test: Minimum Inhibitory Concentration (MIC) in LB media; type: cell-based; conditions: Acinetobacter baumannii, ATCC19606;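 also: twofold compound dilutions from DMSO stocks in LB broth microplates, overnight incubation at 37 °C, growth read by absorbance at 600 nm, with DMSO and sterility controls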
Protocol: Bacterial cultures that are stored as glycerol stocks at −80° C. are sub cultured on LB agar plates to obtain isolated colonies. A single colony of each strain is cultured in LB broth. […] Test compounds are dissolved in dimethyl sulfoxide (DMSO) to a stock concentration of 4 mg/ml. A twofold dilution series of this DMSO stock is prepared in a 96 well V bottom microtitre plate from rows A to H. A 3 μL volume of these dilutions are transferred to a 96-well flat bottom microtitre assay plate. Controls to monitor the effects of DMSO and media sterility are included. Each well is inoculated with 150 μL of the above diluted culture. The plates are incubated at 37° C. overnight in a humidified incubator. The following morning, the plates are read using a Spectrophotometer at 600 nm wavelength.

[8] = molecular target: T1, human ether a go-go related gene (hERG) K+ channel (Homo sapiens, UniProt Q12809); test: hERG inhibition assay, QPatch HTX automated electrophysiology; type: cell-based; conditions: CHO cell line stably expressing hERG, whole-cell patch clamp, maximum test concentration 300 μM
T1 construct: Chinese Hamster Ovary cell line stably expressing the full-length hERG potassium channel; expressed in transfected cells
T1 sequence (Q12809 whole entry): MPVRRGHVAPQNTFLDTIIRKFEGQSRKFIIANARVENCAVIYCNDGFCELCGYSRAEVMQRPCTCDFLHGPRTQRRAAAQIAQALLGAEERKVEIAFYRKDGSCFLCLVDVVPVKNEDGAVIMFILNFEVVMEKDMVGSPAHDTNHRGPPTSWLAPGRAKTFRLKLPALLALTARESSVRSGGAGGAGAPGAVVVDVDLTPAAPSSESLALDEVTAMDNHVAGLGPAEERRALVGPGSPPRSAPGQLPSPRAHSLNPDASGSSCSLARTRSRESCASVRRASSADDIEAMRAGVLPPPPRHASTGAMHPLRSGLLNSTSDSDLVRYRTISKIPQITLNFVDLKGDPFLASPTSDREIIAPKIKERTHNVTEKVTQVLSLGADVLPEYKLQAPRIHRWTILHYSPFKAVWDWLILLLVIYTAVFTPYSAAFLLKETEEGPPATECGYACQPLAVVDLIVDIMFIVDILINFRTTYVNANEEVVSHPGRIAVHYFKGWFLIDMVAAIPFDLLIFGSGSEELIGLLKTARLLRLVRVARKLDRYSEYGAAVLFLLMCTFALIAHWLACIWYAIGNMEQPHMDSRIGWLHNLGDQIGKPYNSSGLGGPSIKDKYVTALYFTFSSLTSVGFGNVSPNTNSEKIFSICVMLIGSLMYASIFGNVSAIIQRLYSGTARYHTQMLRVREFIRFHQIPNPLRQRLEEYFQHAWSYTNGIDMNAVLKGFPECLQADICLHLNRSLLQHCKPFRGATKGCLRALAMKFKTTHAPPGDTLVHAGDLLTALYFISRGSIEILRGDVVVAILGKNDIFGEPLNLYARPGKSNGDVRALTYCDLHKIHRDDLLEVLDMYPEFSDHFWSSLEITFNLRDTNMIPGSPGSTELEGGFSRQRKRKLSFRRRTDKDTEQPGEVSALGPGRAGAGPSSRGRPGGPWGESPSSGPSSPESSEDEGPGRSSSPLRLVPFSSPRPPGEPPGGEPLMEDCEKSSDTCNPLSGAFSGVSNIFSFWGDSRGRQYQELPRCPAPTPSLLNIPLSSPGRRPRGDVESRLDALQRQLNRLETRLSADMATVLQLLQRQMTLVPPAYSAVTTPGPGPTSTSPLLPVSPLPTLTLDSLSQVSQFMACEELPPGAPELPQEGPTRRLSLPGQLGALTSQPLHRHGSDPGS
Protocol: The compounds were tested for inhibition of the human ether a go-go related gene (hERG) K+ channel using QPatch HTX automated electrophysiology.
Compounds were solubilised to 100 mM in DMSO before dilution in HBPS to 300 μM.
Electrophysiological recordings were made from a Chinese Hamster Ovary cell line stably expressing the full-length hERG potassium channel. Single cell ionic currents were measured in whole-cell patch clamp configuration at room temperature (21-23° C.) using the QPatch HTX platform (Sophion). Intracellular solution contained (mM): 120 KF, 20 KCl, 10 EGTA, 10 HEPES and was buffered to pH 7.3. […] Cells were clamped at a holding potential of −80 mV. […] This sweep was repeated 10 times at 10 s intervals. hERG currents were measured from the tail step and referenced to the holding current. Compounds were then incubated for 2 minutes prior to a second measurement of ion channel current using an identical pulse train.

O=C(O)c1cn(C2CC2)c2cc(N3CCNCC3)c(F)cc2c1=O [Ciprofloxacin, reference compound]
MIC [1]: 0.1 µg/mL (≈ 0.302 µM)
MIC [2]: 0.4 µg/mL (≈ 1.21 µM)
MIC [3]: 0.05 µg/mL (≈ 0.151 µM)
MIC [4]: 0.012 µg/mL (≈ 0.0362 µM)
MIC [5]: 0.4 µg/mL (≈ 1.21 µM)
MEAN ± SD (Log 10 CFU/g thigh) ([6]; 10 hr post infection): 3.28 ± 0.19 Log 10 CFU/g thigh
Mean Log10CFU/g thigh reduction (wrt 2 h PI control: 4.72 Log10CFU/g thigh) ([6]; 10 hr post infection): 1.44 Log10CFU/g thigh
Log 10 CFU/g thigh ([6]; individual animals, thigh harvested 10 hr post infection): 3.49 Log 10 CFU/g thigh and 3.11 Log 10 CFU/g thigh and 3.25 Log 10 CFU/g thigh

O=C1COc2ccc(N3C[C@H](CNCCc4c(F)ccc5ccc(=O)n(CCO)c45)OC3=O)nc2N1 [Example 10, (S)-6-(5-(((2-(7-fluoro-1-(2-hydroxyethyl)-2-oxo-1,2-dihydroquinolin-8-yl)ethyl)amino)methyl)-2-oxooxazolidin-3-yl)-2H-pyrido[3,2-b][1,4]oxazin-3(4H)-one]
MIC [1]: 0.5 µg/mL (≈ 1.01 µM)
MIC [2]: 0.06 µg/mL (≈ 0.121 µM)
MIC [3]: 0.06 µg/mL (≈ 0.121 µM)
MIC [4]: 0.03 µg/mL (≈ 0.0603 µM)
MIC [5]: 0.015 µg/mL (≈ 0.0302 µM)
IC50 (E. coli topoisomerase IV): 30 nM
IC50 (E. coli DNA gyrase): 5.9 nM
MIC [7]: 0.125 µg/mL (≈ 0.251 µM)
IC50 [8]: 71000 nM

Cn1c(=O)cc(CN)c2ccc(F)c(CCNC[C@H]3CN(c4ccc5c(n4)NC(=O)CO5)C(=O)O3)c21 [Example 13, (S)-6-(5-(((2-(4-(aminomethyl)-7-fluoro-1-methyl-2-oxo-1,2-dihydroquinolin-8-yl)ethyl)amino)methyl)-2-oxooxazolidin-3-yl)-2H-pyrido[3,2-b][1,4]oxazin-3(4H)-one]
MIC [1]: 0.5 µg/mL (≈ 1.01 µM)
MIC [2]: 0.5 µg/mL (≈ 1.01 µM)
MIC [3]: 0.25 µg/mL (≈ 0.504 µM)
MIC [4]: 0.125 µg/mL (≈ 0.252 µM)
MIC [5]: 0.25 µg/mL (≈ 0.504 µM)
IC50 (E. coli topoisomerase IV): 32 nM
IC50 (E. coli DNA gyrase): 20 nM
MIC [7]: 1 µg/mL (≈ 2.01 µM)
IC50 [8]: > 300000 nM

Cn1c(=O)ccc2ccc(F)c(CCNC[C@@H]3CN(c4cnc5c(n4)NC(=O)CO5)C(=O)O3)c21 [Example 14, (R)-6-(5-(((2-(7-fluoro-1-methyl-2-oxo-1,2-dihydroquinolin-8-yl)ethyl)amino)methyl)-2-oxooxazolidin-3-yl)-2H-pyrazino[2,3-b][1,4]oxazin-3(4H)-one]
MIC [1]: 0.5 µg/mL (≈ 1.07 µM)
MIC [2]: 0.06 µg/mL (≈ 0.128 µM)
MIC [3]: 0.06 µg/mL (≈ 0.128 µM)
MIC [4]: 0.06 µg/mL (≈ 0.128 µM)
MIC [5]: ≤ 0.015 µg/mL
IC50 (E. coli topoisomerase IV): 52 nM
IC50 (E. coli DNA gyrase): 13 nM
MIC [7]: 0.25 µg/mL (≈ 0.534 µM)
IC50 [8]: 41000 nM

Cn1c(=O)ccc2ccc(F)c(CCNC[C@H]3CN(c4ncc5c(n4)NC(=O)CO5)C(=O)O3)c21 [Example 16, (S)-2-(5-(((2-(7-fluoro-1-methyl-2-oxo-1,2-dihydroquinolin-8-yl)ethyl)amino)methyl)-2-oxooxazolidin-3-yl)-6H-pyrimido[5,4-b][1,4]oxazin-7(8H)-one]
MIC [1]: 1 µg/mL (≈ 2.13 µM)
MIC [2]: 0.25 µg/mL (≈ 0.534 µM)
MIC [3]: 0.25 µg/mL (≈ 0.534 µM)
MIC [4]: 0.06 µg/mL (≈ 0.128 µM)
MIC [5]: 0.06 µg/mL (≈ 0.128 µM)
IC50 (E. coli topoisomerase IV): 112 nM
IC50 (E. coli DNA gyrase): 41 nM
MIC [7]: 0.25 µg/mL (≈ 0.534 µM)
IC50 [8]: 204000 nM

O=C1COc2ncc(N3C[C@H](CNCCc4c(F)ccc5ccc(=O)n(CCO)c45)OC3=O)nc2N1 [Example 20, (S)-6-(5-(((2-(7-fluoro-1-(2-hydroxyethyl)-2-oxo-1,2-dihydroquinolin-8-yl)ethyl)amino)methyl)-2-oxooxazolidin-3-yl)-2H-pyrazino[2,3-b][1,4]oxazin-3(4H)-one]
MIC [1]: 0.5 µg/mL (≈ 1 µM)
MIC [2]: 0.125 µg/mL (≈ 0.251 µM)
MIC [3]: 0.5 µg/mL (≈ 1 µM)
MIC [4]: 0.125 µg/mL (≈ 0.251 µM)
MIC [5]: 0.03 µg/mL (≈ 0.0602 µM)
IC50 (E. coli topoisomerase IV): 90 nM
IC50 (E. coli DNA gyrase): 10.6 nM
MIC [7]: 2 µg/mL (≈ 4.01 µM)
IC50 [8]: > 300000 nM

Cn1c(=O)ccc2ccc(F)c(CCCNC[C@H]3CN(c4cnc5c(n4)NC(=O)CO5)C(=O)O3)c21 [Example 22, (S)-6-(5-(((3-(7-fluoro-1-methyl-2-oxo-1,2-dihydroquinolin-8-yl)propyl)amino)methyl)-2-oxooxazolidin-3-yl)-2H-pyrazino[2,3-b][1,4]oxazin-3(4H)-one]
MIC [1]: 0.25 µg/mL (≈ 0.518 µM)
MIC [2]: 0.06 µg/mL (≈ 0.124 µM)
MIC [3]: 0.06 µg/mL (≈ 0.124 µM)
MIC [4]: 0.03 µg/mL (≈ 0.0622 µM)
MIC [5]: ≤ 0.015 µg/mL
IC50 (E. coli topoisomerase IV): 19 nM
IC50 (E. coli DNA gyrase): 3.2 nM
MIC [7]: 0.015 µg/mL (≈ 0.0311 µM)
IC50 [8]: 128000 nM

Cn1c(=O)ccc2ccc(F)c(CCCNC[C@@H]3CN(c4cnc5c(n4)NC(=O)CO5)C(=O)O3)c21 [Example 23, (R)-6-(5-(((3-(7-fluoro-1-methyl-2-oxo-1,2-dihydroquinolin-8-yl)propyl)amino)methyl)-2-oxooxazolidin-3-yl)-2H-pyrazino[2,3-b][1,4]oxazin-3(4H)-one]
MIC [1]: 0.25 µg/mL (≈ 0.518 µM)
MIC [2]: 0.06 µg/mL (≈ 0.124 µM)
MIC [3]: 0.03 µg/mL (≈ 0.0622 µM)
MIC [4]: 0.03 µg/mL (≈ 0.0622 µM)
MIC [5]: 0.015 µg/mL (≈ 0.0311 µM)
IC50 (E. coli topoisomerase IV): 37 nM
IC50 (E. coli DNA gyrase): 4.9 nM
MIC [7]: 0.015 µg/mL (≈ 0.0311 µM)
IC50 [8]: 35000 nM
